Measurements taken from patent US20200281202A1 (priority 2017, published 2020).

Assays:
[1] = tested on: Phytophthora infestans; assay: microbe, parasite or virus in culture; format: cell-based; conditions: for inhibition of growth at 30 ppm: Phytophthora infestans, 168 h, read-out: control (radial growth) compared to the untreated check
[2] = tested on: Phytophthora infestans; assay: whole plant or invertebrate; format: in vivo; conditions: for pest or weed control at 50 ppm: Phytophthora infestans, in Solanum lycopersicum, read-out: control (disease severity) compared to the untreated check
[3] = tested on: Plasmopara viticola; assay: Plasmopara viticola test in grape, preventive; format: in vivo; conditions: 50 ppm spray, grape seedlings inoculated one day after treatment; for pest or weed control at 50 ppm: Plasmopara viticola, read-out: control (disease severity) compared to the untreated check
Method: Example B: Plasmopara viticola Test in Grape
Compounds were dissolved in 2% DMSO/Acetone & then mixed with water to calibrated spray volume of 50 ml. This 50 ml spray solution was poured into the spray bottles for further applications.
To test the preventive activity of compounds, five week old healthy grape seedlings raised in the greenhouse were sprayed with active compound preparation at the stated application rates inside the spray cabinets using hallow-cone nozzles. One day after treatment, the plants were inoculated with inoculum suspension (Cold sterile water) containing 6×10^6 Plasmopara viticola inoculum. The inoculated plants were then kept in greenhouse chamber at 18-21° C. temperature and 95-100% relative humidity for disease expression. Compounds
A visual assessment of compound's performance was carried by rating the disease severity (0-100% scale) on treated plants on 3, 7, 10 and 15 days after application. Efficacy (% control) of the compounds was calculated by comparing the disease rating in the treatment with untreated control. The sprayed plants were also assessed for compound's phytotoxic effects by recording symptoms like necrosis, chlorosis and stunting.

Row | Structure (SMILES) | control (radial growth) compared to the untreated check ([1]; 30 ppm in Rye Agar medium, seven days at 18° C.) | control (disease severity) compared to the untreated check ([2]; 50 ppm spray, preventive, Tomato plants inoculated one day after treatment) | control (disease severity) compared to the untreated check [3] | inhibition of growth at 30 ppm [1] | pest or weed control at 50 ppm [2] | pest or weed control at 50 ppm [3]
1 | O=C(COc1ncc(Br)cc1C(F)(F)F)N1CCC(c2nc(C3=NOC(c4c(Cl)cc(Cl)cc4Cl)C3)cs2)CC1 (stereo not drawn) [Compound 38] | 70% | 90% | 90% |  |  | 
2 | O=C(COc1ncc(Br)cc1C(F)(F)F)N1CCC(c2nc(C3=NOC(c4c(F)cccc4F)C3)cs2)CC1 (stereo not drawn) [Compound 37, 2-((5-bromo-3-(trifluoromethyl)pyridin-2-yl)oxy)-1-(4-(4-(5-(2,6-difluorophenyl)-4,5-dihydroisoxazol-3-yl)thiazol-2-yl)piperidin-1-yl)ethan-1-one] |  |  |  | 70% | 90% | 90%
3 | O=C(COc1ncccc1C(F)F)N1CCC(c2nc(C3=NOC(c4c(Cl)cc(Cl)cc4Cl)C3)cs2)CC1 (stereo not drawn) [Compound 87] |  |  |  | 70% | 90% | 90%
4 | Cc1cccnc1OCC(=O)N1CCC(c2nc(C3=NOC(c4c(Cl)cc(Cl)cc4Cl)C3)cs2)CC1 (stereo not drawn) [Compound 79] |  |  |  | 70% | 90% | 90%
5 | CS(=O)(=O)Oc1cccc(Cl)c1C1CC(c2csc(C3CCN(C(=O)COc4ncc(Cl)cc4C(F)(F)F)CC3)n2)=NO1 (stereo not drawn) [Compound 32, 3-chloro-2-(3-(2-(1-(2-((5-chloro-3-(trifluoromethyl)pyridin-2-yl)oxy)acetyl)piperidin-4-yl)thiazol-4-yl)-4,5-dihydroisoxazol-5-yl)phenyl methanesulfonate] |  |  |  | 70% | 90% | 90%
6 | O=C(COc1ncccc1C(F)(F)F)N1CCC(c2nc(C3=NOC(c4c(Cl)cc(Cl)cc4Cl)C3)cs2)CC1 (stereo not drawn) [Compound 30, 1-(4-(4-(5-(2,4,6-trichlorophenyl)-4,5-dihydroisoxazol-3-yl)thiazol-2-yl)piperidin-1-yl)-2-((3-(trifluoromethyl)pyridin-2-yl)oxy)ethan-1-one] |  |  |  | 70% | 90% | 90%
